Assay results as given in US20240287062A1, “NAPHTHYRIDONE COMPOUNDS FOR INHIBITION OF RAF KINASES AND/OR BCR-ABL TYROSINE KINASES” (Enliven Inc., priority 2021, published 2024).
pIC50: −log10 of the molar value.

Tests used:
[1] = tested on: phosphorylated ERK (pERK); assay: Detection of phosphorylated ERK (pERK), AlphaLISA in A375 cells; format: cell-based; conditions: Homo sapiens, A-375, 4 h, four hours incubation, inhibition of ERK phosphorylation, read-out: PERK ELISA (IC50)
In short: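 A375 cells plated overnight, then exposed 4 h at 37 °C to compounds (four-fold dilutions, 10 μM to 0.01 nM final). Lysate pERK (Thr202/Tyr204) measured by AlphaLISA SureFire; % inhibition normalized to DMSO and staurosporine controls, IC50 from four-parameter logistic fit.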

c-KIT = c-KIT (Homo sapiens (Human), UniProt P10721); assay: Luminescence-based c-KIT kinase assay (Km ATP), ADP-Glo; format: biochemical; conditions: compound at 100 nM concentration
c-KIT, sequence (P10721 26-976): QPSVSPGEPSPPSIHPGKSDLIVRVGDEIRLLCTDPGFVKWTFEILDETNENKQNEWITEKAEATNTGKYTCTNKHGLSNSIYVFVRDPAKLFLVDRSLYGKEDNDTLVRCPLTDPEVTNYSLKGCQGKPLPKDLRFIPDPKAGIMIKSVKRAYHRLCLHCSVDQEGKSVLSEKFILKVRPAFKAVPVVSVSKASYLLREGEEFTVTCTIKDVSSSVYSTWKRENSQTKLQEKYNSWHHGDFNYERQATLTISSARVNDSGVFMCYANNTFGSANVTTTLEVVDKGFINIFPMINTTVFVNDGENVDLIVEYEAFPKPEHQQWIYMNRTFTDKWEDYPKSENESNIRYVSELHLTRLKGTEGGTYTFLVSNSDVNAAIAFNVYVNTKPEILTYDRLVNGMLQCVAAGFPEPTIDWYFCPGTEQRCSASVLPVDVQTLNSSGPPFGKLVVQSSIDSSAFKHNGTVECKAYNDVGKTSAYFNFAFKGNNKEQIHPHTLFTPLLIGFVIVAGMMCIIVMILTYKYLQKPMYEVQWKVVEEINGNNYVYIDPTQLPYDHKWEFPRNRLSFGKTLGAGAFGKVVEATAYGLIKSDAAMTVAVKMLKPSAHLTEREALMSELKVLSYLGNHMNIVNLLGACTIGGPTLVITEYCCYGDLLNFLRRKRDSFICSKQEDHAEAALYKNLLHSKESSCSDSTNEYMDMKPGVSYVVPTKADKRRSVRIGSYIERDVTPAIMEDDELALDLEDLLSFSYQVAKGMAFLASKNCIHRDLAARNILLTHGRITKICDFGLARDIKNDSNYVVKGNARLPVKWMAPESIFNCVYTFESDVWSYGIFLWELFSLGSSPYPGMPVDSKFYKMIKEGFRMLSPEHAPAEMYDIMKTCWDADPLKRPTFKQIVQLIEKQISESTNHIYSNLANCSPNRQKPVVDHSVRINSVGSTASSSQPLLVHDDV
Procedure: Kinase activity of c-KIT was measured using the ADP-Glo system (Promega). Compounds were diluted in DMSO at 100 μM. 20 nL of compound or DMSO only (high control, HC) were added to a 384-well plate (OptiPlate-384, PerkinElmer) using an Echo550 liquid handler (Labcyte). 15 μL of kinase solution (10 mM MgCl2, 0.01% Brij-35, 2 mM DTT, 0.05% BSA, 1 mM EGTA, 50 mM HEPES pH 7.5, and 13.3 nM c-KIT [Carna Biosciences]) were added to each well of the 384-well plate containing the compounds. No enzyme control wells were included (low control, LC). The plate was incubated at room temperature for 30 minutes. 5 μL of a second solution containing 10 mM MgCl2, 0.01% Brij-35, 2 mM DTT, 0.05% BSA, 1 mM EGTA, 50 mM HEPES pH 7.5, 0.8 μg/ml Poly(Glu-Tyr) (Sigma, Cat No 97105-00-5), and 400 μM ATP were added to each well to start the kinase reaction. The plate was incubated for 90 minutes at room temperature. 20 μL of ADP-Glo reagent (Promega) were then added to each well and the plate was incubated for 40 minutes at room temperature. […] During this step, ADP was converted to ATP, a substrate for luciferase, to produce luminescence signal. Luminescence was measured on an Envision plate reader (Perkin Elmer). Luminescence signal positively correlates with kinase activity. The percent inhibition of kinase activity was calculated as follows: percent inhibition=100×(LumHC−LumSample)/(LumHC−LumLC). […]

ABL1 (T315I) = ABL1 (T315I) (Homo sapiens (Human), UniProt P00519, T315I); assay: Luminescence-based ABL kinase assay (Km ATP), ADP-Glo; format: biochemical; conditions: measured using the Abl1 Km assay, read-out: IC50 (nM), value inside parentheses
Procedure: (§1) Kinase activity of ABL1 was measured using the ADP-Glo system (Promega), which measures formation of ADP using a luminescence-based method. Compounds were serially diluted in DMSO. 20 nL of compound or DMSO only (high control, HC) were added to a 384-well plate (OptiPlate-384, PerkinElmer) using an Echo550 liquid handler (Labcyte). 15 μL of kinase solution (10 mM MgCl2, 0.01% Brij-35, 2 mM DTT, 0.05% BSA, 1 mM EGTA, 50 mM HEPES pH 7.5, and 3.325 nM ABL1 [Carna Biosciences]) were added to each well of the 384-well plate containing the compounds. No enzyme control wells were included (low control, LC). The plate was incubated at room temperature for 30 minutes. 5 μL of a second solution containing 10 mM MgCl2, 0.01% Brij-35, 2 mM DTT, 0.05% BSA, 1 mM EGTA, 50 mM HEPES pH 7.5, 6 μM Peptide 2 (Perkin Elmer, Cat No 760346), and 40 μM ATP were added to each well to start the kinase reaction. The plate was incubated for 90 minutes at room temperature. 20 μL of ADP-Glo reagent (Promega) were then added to each well and the plate was incubated for 40 minutes at room temperature. 40 μL of kinase detection reagent (Promega) was added to each well and the plate was incubated for an additional 45 minutes at room temperature. During this step, ADP was converted to ATP, a substrate for luciferase, to produce luminescence signal. Luminescence was measured on an Envision plate reader (Perkin Elmer). Luminescence signal positively correlates with kinase activity. The percent kinase activity was calculated as follows: percent kinase activity=100×(LumSample−LumLC)/(LumHC−LumLC). As noted above, DMSO only and no enzyme wells were used as high and low controls, respectively. IC50 values were calculated using the XLFit software.

ABL1 = ABL1 (Homo sapiens (Human), UniProt P00519); assay: as above; format: biochemical; conditions: measured using the Abl1 Km assay, read-out: IC50 (nM), value inside parentheses
Procedure: as §1

Structure (SMILES)	pIC50 [1]	inhibition at 0.1 µM (c-KIT) [%]	IC50 (ABL1 (T315I)) [nM]	IC50 (ABL1) [nM]
Cc1c(F)cncc1-c1cc2cnc(NC(=O)C3CC3)cc2n(C)c1=O [Compound 2, N-[3-(5-fluoro-4-methylpyridin-3-yl)-1-methyl-2-oxo-1,6-naphthyridin-7-yl]cyclopropanecarboxamide]	6.72	17	680	1.8
Cc1c(F)cncc1-c1cc2cnc(NC(=O)[C@@H]3C[C@@H]3F)cc2n(C)c1=O [Compound 28, (1S,2S)-2-fluoro-N-[3-(5-fluoro-4-methylpyridin-3-yl)-1-methyl-2-oxo-1,6-naphthyridin-7-yl]cyclopropane-1-carboxamide]	6.84	7.3	1500	2.2
